Measurements from publication PMC2755957 (The Journal of Biological Chemistry, 2009).
Where a chain is given by its changes, count along the chain named.

Legend:
[1] = molecular target: T1, mouse Δ1–24-L-PGDS (lipocalin type prostaglandin D synthase) (Mus musculus, UniProt O09114); test: surface plasmon resonance; format: binding
T1 sequence (O09114 25-189): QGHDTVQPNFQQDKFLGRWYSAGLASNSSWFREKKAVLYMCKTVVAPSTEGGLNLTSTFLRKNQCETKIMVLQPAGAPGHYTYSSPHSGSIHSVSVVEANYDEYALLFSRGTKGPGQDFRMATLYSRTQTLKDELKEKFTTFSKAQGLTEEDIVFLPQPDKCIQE

[2] = molecular target: T2, mouse Δ1–24-L-PGDS (lipocalin type prostaglandin D synthase) (Mus musculus, UniProt O09114, W54A); test: surface plasmon resonance; format: binding
T2 sequence (O09114 25-189 W54A): T1 sequence (O09114 25-189) with W30A

[3] = molecular target: T3, Δ^1–24-L-PGDS + S45A/T67A (Mus musculus, UniProt O09114, S45A/T67A); test: biochemical
T3 sequence (O09114 1-189 S45A/T67A): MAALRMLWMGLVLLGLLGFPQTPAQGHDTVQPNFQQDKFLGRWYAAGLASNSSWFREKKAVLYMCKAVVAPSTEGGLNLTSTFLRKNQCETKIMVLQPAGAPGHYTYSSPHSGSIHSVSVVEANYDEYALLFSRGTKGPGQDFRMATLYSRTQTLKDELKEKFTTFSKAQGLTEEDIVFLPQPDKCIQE

[4] = molecular target: T4, mouse Δ1–24-L-PGDS (lipocalin type prostaglandin D synthase) (Mus musculus, UniProt O09114, T67A); test: surface plasmon resonance; format: binding
T4 sequence (O09114 25-189 T67A): T1 sequence (O09114 25-189) with T43A

[5] = molecular target: T5, mouse Δ1–24-L-PGDS (lipocalin type prostaglandin D synthase) (Mus musculus, UniProt O09114, H111A/W54A); test: surface plasmon resonance; format: binding
T5 sequence (O09114 25-189 W54A/H111A): T1 sequence (O09114 25-189) with W30A, H87A

Δ^1–24-C65A + W54A = molecular target: T6, Δ^1–24-C65A + W54A (Mus musculus, UniProt O09114, C65A/W54A); test: biochemical
T6 sequence (O09114 1-189 W54A/C65A): T3 sequence (O09114 1-189 S45A/T67A) with A45S, W54A, C65A, A67T

[6] = molecular target: T7, mouse Δ1–24-L-PGDS (lipocalin type prostaglandin D synthase) (Mus musculus, UniProt O09114, C65A); test: surface plasmon resonance; format: binding
T7 sequence (O09114 25-189 C65A): T1 sequence (O09114 25-189) with C41A

Δ^1–24-C65A + H111A = molecular target: T8, Δ^1–24-C65A + H111A (Mus musculus, UniProt O09114, C65A/H111A); test: biochemical
T8 sequence (O09114 1-189 C65A/H111A): T3 sequence (O09114 1-189 S45A/T67A) with A45S, C65A, A67T, H111A

[7] = molecular target: T9, mouse Δ1–24-L-PGDS (lipocalin type prostaglandin D synthase) (Mus musculus, UniProt O09114, S45A); test: surface plasmon resonance; format: binding
T9 sequence (O09114 25-189 S45A): T1 sequence (O09114 25-189) with S21A

[8] = molecular target: T1, mouse Δ1–24-L-PGDS (lipocalin type prostaglandin D synthase); test: PGDS assay, [[…]-14C]PGH2 to [[…]-14C]PGD2 by TLC; format: biochemical
[9] = molecular target: T10, Δ^1–24-L-PGDS + T67A/S81A (Mus musculus, UniProt O09114, S81A/T67A); test: biochemical
T10 sequence (O09114 1-189 T67A/S81A): T3 sequence (O09114 1-189 S45A/T67A) with A45S, S81A

[10] = molecular target: T11, mouse Δ1–24-L-PGDS (lipocalin type prostaglandin D synthase) (Mus musculus, UniProt O09114, H111A); test: surface plasmon resonance; format: binding
T11 sequence (O09114 25-189 H111A): T1 sequence (O09114 25-189) with H87A

Kd [1]	Kd [2]	Kd [3]	Kd [4]	Kd [5]	Kd (Δ^1–24-C65A + W54A)	Kd [6]	Kd (Δ^1–24-C65A + H111A)	Kd [7]	Ki [8]	Kd [9]	Kd [10]	Structure (SMILES)
17.5 ± 1.2 µM	20.3 ± 1.9 µM	7.2 ± 1.6 µM	12.3 ± 3 µM	20.6 ± 1.4 µM	49.2 ± 3.7 µM	20.2 ± 2.5 µM	38.1 ± 2.4 µM	15.2 ± 2.4 µM	30 µM	13.5 ± 2.3 µM	20.6 ± 2.3 µM	CCCCC[C@H](O)/C=C/[C@H]1[C@@H]2CO[C@@H](C2)[C@@H]1C/C=C\CCCC(=O)O [U-44069]
22.8 ± 1.6 µM	44 ± 3.9 µM	19.1 ± 2.5 µM	26.9 ± 5.3 µM	48.5 ± 4.4 µM	42.4 ± 3.4 µM	22.1 ± 1.5 µM	37.2 ± 3.5 µM	16.2 ± 1.4 µM	36 µM	19.6 ± 2.3 µM	20.3 ± 1.3 µM	CCCCC[C@H](O)/C=C/[C@@H]1[C@@H](C/C=C\CCCC(=O)O)[C@H]2CO[C@@H]1C2 [U-46619]
